Read-outs that look alike come from different tables or passages of the source.
Assays:
Format in all cases: cell-based
hGIPR = molecular target: T1, hGIPR (Homo sapiens, UniProt P48546); assay: Functional cAMP formation (HTRF) in HEK-293 clonal cells expressing hGIPR, 0.1% bovine casein, without or with 1.0% human serum albumin; conditions: for Emax: read-out: hGIPR Emax, % ± SEM; for EC50: geometric mean, read-out: hGIPR EC50, nM (SEM, n)
T1 construct: expressed in transfected cells
T1 sequence (P48546 22-466): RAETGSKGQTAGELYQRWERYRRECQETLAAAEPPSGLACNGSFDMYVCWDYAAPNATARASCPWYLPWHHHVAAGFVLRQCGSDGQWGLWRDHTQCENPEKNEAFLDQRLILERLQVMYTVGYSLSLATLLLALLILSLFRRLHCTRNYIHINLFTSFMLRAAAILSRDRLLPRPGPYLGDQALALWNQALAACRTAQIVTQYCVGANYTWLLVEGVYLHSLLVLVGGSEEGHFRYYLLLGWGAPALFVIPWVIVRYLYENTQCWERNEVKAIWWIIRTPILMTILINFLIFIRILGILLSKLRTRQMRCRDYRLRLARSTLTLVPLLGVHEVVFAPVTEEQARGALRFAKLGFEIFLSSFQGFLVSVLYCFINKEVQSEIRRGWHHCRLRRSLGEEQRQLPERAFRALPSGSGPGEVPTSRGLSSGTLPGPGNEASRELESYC
Outline: (§1)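 Cells were stimulated with peptide for 30 min at 37° C, then lysed in buffer carrying cAMP-d2 and anti-cAMP Eu3+-cryptate for a competitive HTRF read after at least 60 min at room temperature. The 665/620 nm ratio was converted to nM cAMP against a standard curve.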

hGCGR = molecular target: T2, hGCGR (Homo sapiens, UniProt P47871); assay: Functional cAMP formation (HTRF) in HEK-293 clonal cells expressing hGCGR, 0.1% bovine casein, without or with 1.0% human serum albumin; conditions: geometric mean, read-out: hGCGR EC50, nM (SEM, n)
T2 construct: expressed in transfected cells
Outline: as §1

hGLP-1R = hGLP-1R (Homo sapiens, UniProt P43220); assay: Functional cAMP formation (HTRF) in HEK-293 clonal cells expressing hGLP-1R, 0.1% bovine casein, without or with 1.0% human serum albumin; set-up: expressed in transfected cells; conditions: for Emax: 37° C., read-out: hGLP-1R Emax, % ± SEM; for EC50: cAMP, incubated at 37° C., 0.1% bovine casein (no human serum albumin), geometric mean, read-out: hGLP-1R EC50, nM (SEM, n)
Outline: as §1

[1] = HEK293, 0.1% bovine casein and 1.0% human serum albumin, 37° C., percent of maximal response to GIP(1-42)NH2
[2] = HEK293, percent of maximal response to GIP(1-42)NH2, 37° C., 0.1% bovine casein, arithmetic mean
[3] = cAMP, incubated at 37° C., 0.1% bovine casein (no human serum albumin)
[4] = 0.1% bovine casein and 1.0% human serum albumin, 37° C.
[5] = HEK293, percent of maximal response to GLP-1(7-36)NH2, 0.1% bovine casein, arithmetic mean

Sequence of hGLP-1R (P43220 24-463): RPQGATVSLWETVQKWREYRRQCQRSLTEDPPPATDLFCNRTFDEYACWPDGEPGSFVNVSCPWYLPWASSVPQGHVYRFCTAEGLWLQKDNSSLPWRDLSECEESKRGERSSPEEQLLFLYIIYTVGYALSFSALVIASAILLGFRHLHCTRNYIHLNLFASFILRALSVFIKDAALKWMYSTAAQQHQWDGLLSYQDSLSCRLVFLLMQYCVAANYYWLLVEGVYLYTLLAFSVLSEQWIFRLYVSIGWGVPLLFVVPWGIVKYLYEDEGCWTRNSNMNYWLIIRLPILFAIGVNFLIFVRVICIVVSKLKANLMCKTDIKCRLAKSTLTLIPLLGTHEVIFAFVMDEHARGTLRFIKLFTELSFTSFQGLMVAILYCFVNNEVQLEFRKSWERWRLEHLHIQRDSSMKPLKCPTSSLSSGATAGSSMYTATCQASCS
T2 sequence (P47871 26-477): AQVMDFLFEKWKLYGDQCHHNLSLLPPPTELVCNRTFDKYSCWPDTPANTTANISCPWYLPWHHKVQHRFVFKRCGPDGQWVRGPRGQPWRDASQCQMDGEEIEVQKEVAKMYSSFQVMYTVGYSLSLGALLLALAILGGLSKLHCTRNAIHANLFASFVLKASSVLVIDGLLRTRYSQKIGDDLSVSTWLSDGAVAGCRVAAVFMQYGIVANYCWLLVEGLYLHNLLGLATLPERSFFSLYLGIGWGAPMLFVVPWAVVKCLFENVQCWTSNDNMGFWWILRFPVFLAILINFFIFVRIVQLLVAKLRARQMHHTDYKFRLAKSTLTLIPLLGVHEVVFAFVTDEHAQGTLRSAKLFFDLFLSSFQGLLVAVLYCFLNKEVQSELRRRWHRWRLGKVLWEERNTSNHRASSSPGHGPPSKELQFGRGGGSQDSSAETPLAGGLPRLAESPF

Compound: CC[C@H](C)[C@H](NC(=O)[C@H](CCCN)NC(=O)[C@H](CC(=O)O)NC(=O)[C@H](CC(C)C)NC(=O)[C@](C)(CC(C)C)NC(=O)[C@@H](NC(=O)[C@H](CO)NC(=O)[C@H](Cc1ccncc1)NC(=O)[C@H](CC(=O)O)NC(=O)[C@H](CO)NC(=O)[C@@H](NC(=O)[C@](C)(Cc1ccccc1F)NC(=O)[C@@H](NC(=O)CNC(=O)[C@H](CCC(=O)O)NC(=O)C(C)(C)NC(=O)[C@@H](N)Cc1ccc(O)cc1)[C@@H](C)O)[C@@H](C)O)[C@@H](C)CC)C(=O)N[C@@H](C)C(=O)N[C@@H](CCC(N)=O)C(=O)NC(C)(C)C(=O)N[C@@H](CCCCNC(=O)COCCOCCNC(=O)COCCOCCNC(=O)COCCOCCNC(=O)CC[C@H](NC(=O)CCCCCCCCCCCCC(=O)O)C(=O)O)C(=O)N[C@@H](Cc1ccccc1)C(=O)N[C@H](C(=O)N[C@H](CCC(=O)O)C(=O)N[C@@](C)(Cc1ccc(O)cc1)C(=O)N[C@@H](CC(C)C)C(=O)N[C@H](C(=O)N[C@@H](CCC(=O)O)C(=O)NCC(=O)NCC(=O)N1CCC[C@H]1C(=O)N[C@@H](CO)C(=O)N[C@@H](CO)C(=O)NCC(=O)N[C@@H](C)C(=O)N1CCC[C@H]1C(=O)N1CCC[C@H]1C(=O)N1CCC[C@H]1C(=O)N[C@@H](CO)C(=O)N[C@@H](CCCCNC(=O)COCCOCCNC(=O)COCCOCCNC(=O)COCCOCCNC(=O)CC[C@H](NC(=O)CCCCCCCCCCCCC(=O)O)C(=O)O)C(N)=O)[C@@H](C)CC)[C@@H](C)CC [Example 228]
- Emax (hGIPR; [1]): 83.3%
- Emax (hGIPR; [2]): 110%
- EC50 (hGIPR; [3]): 0.0232 nM
- EC50 (hGCGR; [4]): > 9950 nM
- EC50 (hGCGR; [3]): > 9950 nM
- Emax (hGLP-1R; HEK293, 0.1% bovine casein and 1.0% human serum albumin, percent of maximal response to GLP-1(7-36)NH2): 119%
- Emax (hGLP-1R; [5]): 91.1%
- EC50 (hGLP-1R): 1.34 nM

Compound: CC[C@H](C)[C@H](NC(=O)[C@H](CC(C)C)NC(=O)[C@](C)(Cc1ccc(O)cc1)NC(=O)[C@@H](CCC(=O)O)NC(=O)[C@@H](NC(=O)[C@H](Cc1ccccc1)NC(=O)[C@H](CCC(=O)O)NC(=O)C(C)(C)NC(=O)[C@H](CCC(N)=O)NC(=O)[C@H](C)NC(=O)[C@H](CCCCNC(=O)COCCOCCNC(=O)COCCOCCNC(=O)COCCOCCNC(=O)CC[C@H](NC(=O)CCCCCCCCCCCCC(=O)O)C(=O)O)NC(=O)[C@H](CCCN)NC(=O)[C@H](CC(=O)O)NC(=O)[C@H](CC(C)C)NC(=O)[C@](C)(CC(C)C)NC(=O)[C@@H](NC(=O)[C@H](CO)NC(=O)[C@H](Cc1ccncc1)NC(=O)[C@H](CC(=O)O)NC(=O)[C@H](CO)NC(=O)[C@@H](NC(=O)[C@](C)(Cc1ccccc1F)NC(=O)[C@@H](NC(=O)CNC(=O)[C@H](CCC(=O)O)NC(=O)C(C)(C)NC(=O)[C@@H](N)Cc1ccc(O)cc1)[C@@H](C)O)[C@@H](C)O)[C@@H](C)CC)[C@@H](C)CC)C(=O)N[C@@H](CCCCNC(=O)COCCOCCNC(=O)COCCOCCNC(=O)COCCOCCNC(=O)CC[C@H](NC(=O)CCCCCCCCCCCCC(=O)O)C(=O)O)C(=O)NCC(=O)NCC(=O)N1CCC[C@H]1C(=O)N[C@@H](CO)C(=O)N[C@@H](CO)C(=O)NCC(=O)N[C@@H](C)C(=O)N1CCC[C@H]1C(=O)N1CCC[C@H]1C(=O)N1CCC[C@H]1C(=O)N[C@@H](CO)C(N)=O [Example 224]
- EC50 (hGIPR; [4]): 2.92 nM
- Emax (hGIPR; [1]): 90.6%
- Emax (hGIPR; [2]): 109%
- EC50 (hGCGR; [4]): > 9950 nM
- EC50 (hGCGR; [3]): > 9950 nM
- Emax (hGLP-1R; [5]): 88.4%
- EC50 (hGLP-1R): 7.51 nM

Source: patent US20230265151A1, “GIP/GLP1 CO-AGONIST COMPOUNDS” (priority 2020, published 2023)
